# Measured values reported in US12509467B2 (Hoffmann-La Roche Inc., priority 2020, dated 2025).
# Target: T1, human cGAS (residues 161-522) (Homo sapiens, UniProt Q8N884)
# T1 construct: Recombinantly expressed purified human cGAS (residues 161-522) was used at 25 nM; made in house
# Assay: cGAS Activity Assay—Malachite Green
# Format: biochemical
# Details: not given
# Method: Compounds were tested for cGAS inhibition in a coupled enzymatic assay based on Phosphate detection by Malachite Green. Final assay conditions were 20 mM TRIS pH 7.5 (Applichem), 5 mM MgCl2 (Sigma) and 0.01% BSA (Sigma) supplemented with 80 μM ATP (Sigma), 80 μM GTP (Sigma) and 100 nM Interferon Stimulating DNA (ISD) (Microsynth).
# 1 μL of DMSO dilution series was transferred to 32.3 μL reaction buffer, mixed by pipetting up/down, spun for 1 minute at 3000 rpm and was visually inspected for precipitation. 5 μL of 3-fold enzyme stock solution were transferred to an empty 384-well Black/Clear Flat Bottom Polystyrene NBS (Corning) rows 3-24. Rows 1-2 were filled with assay buffer. Plates were spun 10 seconds at 1000 rpm (164×g). 5 μL of compound intermediate dilution was added and mixed by pipetting up/down to rows 3-24. Rows 1-2 were filled with 3.1% DMSO assay buffer. Plates were spun 10 seconds at 1000 rpm (164×g). 5 μL 3-fold Nucleotide/DNA mix was added to all wells to start the reaction. Plates were spun 10 seconds at 1000 rpm (164×g) and incubated for 4 hour at room temperature (RT) in the dark. 5 μL 4 U/mL PPase (Sigma) were added to all wells. Plates spun 10 seconds at 1000 rpm (164×g). 10 μL BioMol green Solution (Enzo Life Sciences) was added to all wells. Plates spun 10 seconds at 1000 rpm (164×g) and incubated 30 minutes at RT in the dark. Absorbance data was collected 620 nm on an EnVision Multilable Reader (Perkin Elmer) and the following measurement settings were used: excitation filter photometric was 620 nm; excitation from the top; measurement height was 1 mm; number of flashes was 30; number of flashes integrated was 1.
# All plates are checked for abnormalities and outliers in the Blank Control (no protein, row 1) and the Neutral Control (no compound, row 2) are excluded using the 3*SD rule.
# Table 5 provides IC50 values (μM) for cGAS inhibition obtained for particular examples of the present invention as measured by the above-described assay.
# T1 sequence (Q8N884 161-522): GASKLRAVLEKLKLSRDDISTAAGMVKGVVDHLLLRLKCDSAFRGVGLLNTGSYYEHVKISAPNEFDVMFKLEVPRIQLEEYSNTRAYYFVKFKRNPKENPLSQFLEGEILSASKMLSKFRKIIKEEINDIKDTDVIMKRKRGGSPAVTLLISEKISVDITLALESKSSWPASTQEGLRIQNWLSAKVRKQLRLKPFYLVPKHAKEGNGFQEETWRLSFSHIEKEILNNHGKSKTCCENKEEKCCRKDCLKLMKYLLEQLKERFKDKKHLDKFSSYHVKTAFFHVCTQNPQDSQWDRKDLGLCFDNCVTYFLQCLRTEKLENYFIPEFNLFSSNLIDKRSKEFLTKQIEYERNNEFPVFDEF
row,Compound,IC50 [nM]
1,"CC(C)c1ccc(CNc2nc3[nH]c(Cc4ccccc4)cc(=O)n3n2)cc1 [Example 73, 5-benzyl-2-[(4-isopropylphen-yl)methylamino]-4H-[1,2,4]-triazolo[1,5-a]pyrimidin-7-one]",2700
2,"CCCc1cc(=O)n2nc(NCc3ccc(OCc4ccccc4)cc3)nc2[nH]1 [Example 17, 2-[(4-benzyloxyphenyl)methyl-amino]-5-propyl-4H-[1,2,4]-triazolo[1,5-a]pyrimidin-7-one]",4080
3,"O=c1cc(CCc2ccccc2)[nH]c2nc(NCc3ccc(Cl)cc3Cl)nn12 [Example 72, 2-[(2,4-dichlorophenyl)meth-ylamino]-5-(2-phenylethyl)-4H-[1,2,4]triazolo[1,5-a]-pyrimidin-7-one]",2110
4,"CCCCc1cc(=O)n2nc(NCc3cc(N4CC5(COC5)C4)ncc3Cl)nc2[nH]1 [Example 97, 5-Butyl-2-[[5-chloro-2-(2-oxa-6-azaspiro[3.3]heptan-6-yl)-4-pyridyl]methylamino]-4H-[1,2,4]triazolo[1,5-a]pyrimidin-7-one]",128
5,"CCCCc1cc(=O)n2nc(NCc3ccc(Cl)cc3Cl)nc2[nH]1 [Example 35, 5-butyl-2-[(2,4-dichlorophen-yl)methylamino]-4H-[1,2,4]-triazolo-[1,5-a]pyrimidin-7-one]",1320
6,"CCCc1cc(=O)n2nc(NCc3ccc(OCC(F)(F)F)cc3)nc2[nH]1 [Example 8, 5-propyl-2-[[4-(2,2,2-trifluoro-ethoxy)phenyl]methyllamino]-4H-[1,2,4]triazolo[1,5-a]-pyrimidin-7-one]",7780
7,CCCc1cc(=O)n2nc(NCc3ccc(OCc4ccccc4)cc3Cl)nc2[nH]1 [Example 15],4000
8,CCCc1cc(=O)n2nc(NCc3ccc(OCC)cc3Cl)nc2[nH]1 [Example 11],1340
9,CCCc1cc(=O)n2nc(NCc3ccc(-c4ccccc4)cc3Cl)nc2[nH]1 [Example 4],765
10,"CCCc1cc(=O)n2nc(NCc3cc(-c4ccn(C)n4)ccc3Cl)nc2[nH]1 [Example 57, 2-[[2-chloro-5-(1-methylpyrazol-3-yl)phenyl]methylamino]-5-propyl-4H-[1,2,4]triazolo[1,5-a]pyrimidin-7-one]",533
11,"CCCc1cc(=O)n2nc(NCc3cc(-c4cccnc4)ccc3Cl)nc2[nH]1 [Example 21, 2-[[2-chloro-5-(3-pyridyl)phen-yl]-methylamino]-5-propyl-4H-[1,2,4]triazolo[1,5-a]pyrimidin-7-one]",744
12,"CCCc1cc(=O)n2nc(NC(C)c3ccc(-c4ccccc4)cc3)nc2[nH]1 (stereo not drawn) [Example 56, 2-[1-(4-phenylphenyl)ethyl-amino]-5-propyl-4H-[1,2,4]-triazolo[1,5-a]pyrimidin-7-one]",2870

# Same assay, conditions: cGAS inhibition; 25 nM cGAS, 80 μM ATP, 80 μM GTP, 100 nM ISD, 4 hour at RT, Malachite Green phosphate detection; read-out: IC50 cGAS
row,Compound,IC50 [nM]
1,"CCCc1cc(=O)n2nc(NCc3ccc(OC(C)C)cc3)nc2[nH]1 [Example 53, 2-[(4-propan-2-yloxyphenyl)-methylamino]-5-propyl-4H-[1,2,4]triazolo[1,5-a]pyrimidin-7-one]",2660
2,"O=c1cc(CNc2ccccc2F)[nH]c2nc(NCc3ccccc3Cl)nn12 [Example 80, 2-[(2-Chlorophenyl)methylamino]-5-1(2-fluoroanilino)methyl1-4H-11,2,41triazolo[1,5-a]pyrimidin-7-one]",1920
3,"O=c1cc(CC2CCC2)[nH]c2nc(NCc3ccc(-c4ccccc4)cc3)nn12 [Example 3, 5-(cyclobutylmethyl)-2-[(4-phen-ylphenyl)methylamino]-4H-[1,2,4]triazolo[1,5-a]pyrimidin-7-one]",1570
4,"CCCc1cc(=O)n2nc(NCc3ccc(Cl)cc3Cl)nc2[nH]1 [Example 58, 2-[(2,4-Dichlorophenyl)methylamino]-5-propyl-4H-[1,2,4]triazolo[1,5-a]pyrimidin-7-one]",1720
5,Cn1ccc(-c2ccc(Cl)c(CNc3nc4[nH]c(Cc5ccccc5)cc(=O)n4n3)c2)n1 [Example 27],178
6,"CCCc1cc(=O)n2nc(NCc3cc(-c4ccn(C)n4)ccc3F)nc2[nH]1 [Example 12, 2-[[2-fluoro-5-(1-methylpyrazol-3-yl)phenyl]methylamino]-5-propyl-4H-[1,2,4]triazolo[1,5-a]pyrimidin-7-one]",602
7,"CCCc1cc(=O)n2nc(NCc3cc(-c4ccn(C)n4)ccn3)nc2[nH]1 [Example 82, 2-[[4-(1-methylpyrazol-3-yl)-2-pyridyl]methylamino]-5-propyl-4H-[1,2,4]triazolo-[1,5-a]pyrimidin-7-one]",1490
8,"CCCc1cc(=O)n2nc(NCc3nc4ccccc4o3)nc2[nH]1 [Example 74, 2-(1,3-benzoxazol-2-ylmethyl-amino)-5-propyl-4H-[1,2,4]-triazolo[1,5-a]pyrimidin-7-one]",4560
9,"CCCc1cc(=O)n2nc(NCc3cc(-n4cnc(C)c4)ccc3Cl)nc2[nH]1 [Example 88, 2-[[2-Chloro-5-(4-methylimidazol-1-yl)phenyl]methylamino]-5-propyl-4H-[1,24]triazolo[1,5-a]pyrimidin-7-one]",484
10,"CCCc1cc(=O)n2nc(NCc3ccc(Cl)cc3C)nc2[nH]1 [Example 66, 2-[(4-chloro-2-methylphenyl)-methylamino]-5-propyl-4H-[1,2,4]triazolo[1,5-a]pyrimidin-7-one]",9280
11,"CCCc1cc(=O)n2nc(NCc3ccc(-n4cccn4)cc3)nc2[nH]1 [Example 5, 5-propyl-2-[(4-pyrazol-1-yl-phenyl)methylamino]-4H-[1,2,4]-triazolo[1,5-a]pyrimidin-7-one]",4010
12,"CCCCc1cc(=O)n2nc(NCc3cc(-c4ccncn4)ccc3Cl)nc2[nH]1 [Example 86, 5-Butyl-2-[(2-chloro-5-pyrimidin-4-yl-phenyl)methylamino]-4H-[1,2,4]triazolo [1,5-a]pyrimidin-7-one]",79
13,"CCCc1cc(=O)n2nc(NCc3ccc(-c4ccccc4)cc3F)nc2[nH]1 [Example 1, 2-[(2-Fluoro-4-phenyl-phenyl)methylamino]-5-propyl-4H-[1,2,4]triazolo[1,5-a]pyrimidin-7-one]",744
14,"CC(Nc1nc2[nH]c(C(F)(F)F)cc(=O)n2n1)c1ccc(-c2ccccc2)cc1 (stereo not drawn) [Example 78, 2-[1-(4-phenylphenyl)ethyl-amino]-5-(trifluoromethyl)-4H-[1,2,4]triazolo[1,5-a]pyrimidin-7-one]",2450
15,O=c1cc(CC2CCC2)[nH]c2nc(NCc3ccc(Cl)cc3Cl)nn12 [Example 65],1590
16,"CCCCc1cc(=O)n2nc(NCc3nc(N4CCOCC4)ncc3Cl)nc2[nH]1 [Example 98, 5-Butyl-2-[(5-chloro-2-morpholino-pyrimidin-4-yl)methylamino]-4H-[1,2,4]triazolo[1,5-a]pyrimidin-7-one]",435
17,"CCCc1cc(=O)n2nc(NCc3ccc(OCC)cc3)nc2[nH]1 [Example 54, 2-[(4-ethoxyphenyl)methyl-amino]-5-propyl-4H-[1,2,4]-triazolo[1,5-a]pyrimidin-7-one]",2200
18,"O=c1cc(Cc2ccccc2)[nH]c2nc(NCc3ccc(Cl)cc3Cl)nn12 [Example 71, 5-benzyl-2-[(2,4-dichlorophen-yl)methylamino]-4H-[1,2,4]-triazolo[1,5-a]pyrimidin-7-one]",1760
19,"CCCCc1cc(=O)n2nc(NCc3cc(C4CC4)on3)nc2[nH]1 [Example 49, 5-butyl-2-[(5-cyclopropylisox-azol-3-yl)methylamino]-4H-[1,2,4]triazolo[1,5-a]pyrimidin-7-one]",4660
20,"O=c1cc(CC(F)(F)F)[nH]c2nc(NCc3ccc(Cl)cc3Cl)nn12 [Example 68, 2-[(2,4-dichlorophenyl)meth-ylamino]-5-(2,2,2-trifluoro-ethyl)-4H-[1,2,4]triazolo[1,5-a]pyrimidin-7-one]",4440
21,"CCCc1cc(=O)n2nc(NCc3cnc(N4CCOCC4)cc3Cl)nc2[nH]1 [Example 99, 2-[(4-Chloro-6-morpholino-3-pyridyl)methylamino]-5-propyl-4H-[1,2,4]triazolo[1,5-a]pyrimidin-7-one]",2190
22,"CCCc1cc(=O)n2nc(NCc3ccc(OC4CC4)cc3)nc2[nH]1 [Example 10, 2-[[4-(cyclopropoxy)phenyl]-methylamino]-5-propyl-4H-[1,2,4]triazolo[1,5-a]pyrimidin-7-one]",4080
23,"CCCc1cc(=O)n2nc(NCc3cc(-c4cncnc4)ccc3Cl)nc2[nH]1 [Example 36, 2-[(2-chloro-5-pyrimidin-5-yl-phenyl)methylamino]-5-propyl-4H-[1,2,4]triazolo[1,5-a]-pyrimidin-7-one]",392
24,"CCCc1cc(=O)n2nc(NCc3ccc(-n4ccnc4)cc3)nc2[nH]1 [Example 9, 2-[(4-imidazol-1-ylphenyl)meth-ylamino]-5-propyl-4H-[1,2,4]-triazolo[1,5-a]pyrimidin-7-one]",4010
